Data from patent US7122569B2, “Ethylene glycol esters as photoactive agents” (priority 1997, dated 2006).

Legend:
MHC Class II = assay: Low-dose PDT, expression of cell surface antigens by peritoneal macrophages: MHC Class II; type: cell-based, murine; conditions: BPD-MA 2.5 ng/ml, B-EA6 0.5 ng/ml; 690 nm LED 5 J/cm^2, 24 hr later
Description: (§1) In an additional assay to determine immunomodulation, murine peritoneal macrophages were isolated, purified and activated by recombinant interferon-γ (100 U/ml). […] Expression levels of MHC I, MHC II, CD54, CD80 and CD86 were determined 24 hr later using FITC conjugated antibodies and a cell sorter. The results are shown in Table 4 for B-EA6 at 0.5 ng/ml in comparison to similar experiments using BPD-MA at 2.5 ng/ml. The results in the table are given as a percent of expression as compared to cells treated with light only. As shown, BPD-MA and B-EA6 were both able to reduce expression of MHC II, but not the remaining surface markers. Thus, although B-EA6 has advantageous pharmacokinetics, it retains the immunomodulatory activity of BPD-MA and other compounds of this group.

MHC Class I = assay: Low-dose PDT, expression of cell surface antigens by peritoneal macrophages: MHC Class I; type: cell-based, murine; conditions: BPD-MA 2.5 ng/ml, B-EA6 0.5 ng/ml; 690 nm LED 5 J/cm^2, 24 hr later
Description: as §1

[1] = system: M1 rhabdomyosarcoma tumors; assay: PDT bioassay in mouse tumor model, tumor-free on day 7; type: in vivo, DBA/2 mice
Description: The pharmacokinetics were also determined using an in vivo mouse tumor model. Groups of 10 DBA/2 mice containing M1 rhabdomyosarcoma tumors were injected intravenously with a liposomal formulation of BPD-MA at various dosages of 0.75–1.5 mg/kg. The tumors were irradiated with 690 nm laser light at 50 or 150 J/cm^2 at various times after injection.

[2] = system: DNFB-induced ear swelling; assay: Contact hypersensitivity (CHS) assay, DNFB ear swelling; type: in vivo, Balb/C mice; conditions: 1 mg/kg liposomal IV
Description: Balb/C mice (5–8 mice per group) were tested using the delayed skin photosensitivity assay also called the contact hypersensitivity (CHS) assay. The mice were painted in the flank with the sensitizing agent dinitrofluorobenzene (DNFB) and 5 days later, one ear is challenged with DNFB, while the other serves as a control. The swelling is an indicator of immune response. […] The swelling in both cases was only approximately 60% of the that shown in mice without treatment.

[3] = In vivo pharmacokinetics, drug content of tissues by fluorescence in tissue extracts; set-up: species or system DBA/2 mice; conditions: 4 mg/kg intravenous
Description: Either BPD-MA or B-EA6 was administered by intravenous injection into DBA/2 mice at a dose of 4 mg/kg using 3 mice per time point. The drug content of plasma, skin, liver and kidney was determined by fluorescence in the tissue extracts.

L1210 cells [4] = assay: LD50 / photocytotoxicity on L1210 cells, 9 J/cm^2 broad spectrum light, MTT assay; type: cell-based, murine
Description: Either B-EA6 or BPD-MA was incubated for 1 hr with L1210 cells at a range of concentrations and exposed to 9 J/cm^2 broad spectrum light. This determination was made in the absence of serum and in the presence of 10% serum.
The ability of B-EA6 to exert a cytotoxic effect on L1210 cells in vitro was further tested by incubating the cells with B-EA6 at various concentrations for 1 hr in the absence of serum. After excess drug was removed, the cells were exposed to 9 J/cm^2 broad spectrum light (380–750 nm) and cell survival was determined by the MTT assay (Mosmann, T. et al. J Immunol Meth (1983) 65:55–63). The percentage of killed cells was calculated in reference to survival of cells exposed to light only.

splenocytes = conditions: 3 μg/ml, after an hour of incubation
Description: The ability of L1210 cells to accumulate B-EA6 was compared to the ability of splenocytes to do so. B-EA6 at 3 μg/ml was incubated with each cell type and the cell content of B-EA6 was determined by fluorescence in cell lysates.

[5] = system: adjuvant-enhanced arthritis; assay: Arthritis model, adjuvant-enhanced, PDT on days 0, 10, 20; type: in vivo, MRL-Ipr mice; conditions: 0.5 mg/kg liposomal IV, red light 80 J/cm^2 at 1 hr
Description: MRL-Ipr mice spontaneously develop arthritis; this was enhanced by intradermal injection of Freund's Adjuvant. Various numbers of MRL-Ipr mice were treated with PDT on days 0, 10, and 20 after injection of the adjuvant. […] The mice were observed and symptoms scored every 5 days for 30 days. The results are shown in FIG. 6 in comparison to mice similarly treated with BPD-MA and BPD-MB.

arterioles and venules = assay: Mouse cremaster muscle model, effect on microvasculature; type: in vivo; conditions: 2 mg/kg IV, 25 J/cm^2 per 5 min
Description: The mouse cremaster muscle model was used. B-EA6 was administered intravenously at 2 mg/kg and starting at 5 and 15 min postinjection, surgically exposed arterioles and venules were irradiated with light at an intensity of 25 J/cm^2 per 5 min beginning at 5 min and 15 min after injection of the B-EA6. The vessels were measured as red blood column diameter as a percentage of controls.

CD80 (B7-1) = assay: Low-dose PDT, expression of cell surface antigens by peritoneal macrophages: CD80; type: cell-based, murine; conditions: BPD-MA 2.5 ng/ml, B-EA6 0.5 ng/ml; 690 nm LED 5 J/cm^2, 24 hr later
Description: as §1

L1210 cells [6] = assay: Release of photosensitizer from preloaded L1210 cells; type: cell-based, murine; conditions: preloaded at 3 μg/ml for 1 hr, drug-free medium with 10% fetal bovine serum; compared with BPD-MA
Description: The kinetics of release of these drugs from L1210 cells was measured by preloading the cells at 3 μg/ml for 1 hr and then placing the cells in drug-free medium containing 10% fetal bovine serum. Remaining intracellular drug content was measured at various time points by lysing the cells and measuring fluorescence.

CD54 (ICAM-1) = assay: Low-dose PDT, expression of cell surface antigens by peritoneal macrophages: CD54; type: cell-based, murine; conditions: BPD-MA 2.5 ng/ml, B-EA6 0.5 ng/ml; 690 nm LED 5 J/cm^2, 24 hr later
Description: as §1

[7] = system: M1 (rhabdomyosarcoma) tumor; assay: Tumor selectivity of PDT in mice bearing subcutaneous M1 tumor; type: in vivo, DBA/2 mice; conditions: 0.75 mg/kg liposomal IV, 15 min, 50 J/cm^2 690 nm
Description: Mice were administered 0.75 mg/kg of B-EA6 in a liposomal formulation intravenously. After 15 min, a 1 cm area which included a 5 mm diameter tumor was exposed to 50 J/cm^2 of 70 mW light of 690 nm wavelength from an argon-pumped dye laser.

CD86 (B7-2) = assay: Low-dose PDT, expression of cell surface antigens by peritoneal macrophages: CD86; type: cell-based, murine; conditions: BPD-MA 2.5 ng/ml, B-EA6 0.5 ng/ml; 690 nm LED 5 J/cm^2, 24 hr later
Description: as §1

L1210 cells [8] = assay: Uptake of photosensitizer by L1210 cells (fluorescence of cell lysates); type: cell-based, murine; conditions: 3 μg/ml, 10% fetal bovine serum
Description: BPD-MA or B-EA6 were incubated at 3 μg/ml in the presence of 10% fetal bovine serum with 10^7/mL of L1210 cells, a murine leukemia cell line. Intracellular content of the photosensitizers was measured by fluorescence of cell lysates at various times. […] The time course of uptake is shown in FIG. 2 as a percentage of cell content at 60 min by which time uptake had reached a maximum in both cases. As shown, B-EA6 is taken up more rapidly and reaches […] of its maximum concentration after only 5 min and reached its maximum uptake within 15 min.

C=Cc1c(C)c2cc3nc(cc4[nH]c(cc5nc(cc1[nH]2)C1(C)C5=CC=C(C(=O)OC)C1C(=O)OC)c(C)c4CCC(=O)OCCO)C(CCC(=O)OCCO)=C3C (centres unmarked) [B-EA6]
MHC Class II expression, percent of cells treated with light only (MHC Class II): 71.8%
MHC Class I expression, percent of cells treated with light only (MHC Class I): 100.4%
Percent Tumor Free on Day 7 ([1]; 0.75 mg/kg liposomal IV, light 15 min post IV, 50 J/cm^2 690 nm): 50%
Percent Tumor Free on Day 7 ([1]; 0.75 mg/kg liposomal IV, light 30 min post IV, 50 J/cm^2 690 nm): 0%
Percent Tumor Free on Day 7 ([1]; 1.0 mg/kg liposomal IV, light 15 min post IV, 50 J/cm^2 690 nm): 90%
Percent Tumor Free on Day 7 ([1]; 1.0 mg/kg liposomal IV, light 30 min post IV, 50 J/cm^2 690 nm): 0%
Percent Tumor Free on Day 7 ([1]; 1.5 mg/kg liposomal IV, light 180 min post IV, 150 J/cm^2 690 nm): 0%
ear swelling relative to mice without treatment ([2]; 15 J/cm^2 whole body light): approximately 60%
ear swelling relative to mice without treatment ([2]; ambient light): approximately 60%
accumulation in skin ([3]; first 3 hr): does not
T½ (15 min-3 hours) Kidney ([3]; kidney): 48 min
T½ (15 min-3 hours) Liver ([3]; liver): 36 min
T½ (15 min-3 hours) Muscle ([3]; muscle): 666 min
T½ (15 min-3 hours) Plasma ([3]; plasma): 36 min
accumulation in plasma, liver or kidney ([3]; relative to 15 min postinjection): neither BPD-MA nor B-EA6 accumulated
T½ (15 min-3 hours) Skin ([3]; skin): 114 min
T½ (15 min-3 hours) Spleen ([3]; spleen): 48 min
percentage of cells that did not survive (L1210 cells [4]; 15 ng/ml, no serum, 9 J/cm^2 light (380–750 nm), vs light only): ~100%
LD50, 10% serum (L1210 cells [4]; L1210 cells, 1 hr incubation, 9 J/cm^2 broad spectrum light, 10% serum): 19.7 ng/mL
percentage of killed cells (L1210 cells [4]; approximately 7 ng/ml, no serum, 9 J/cm^2 light (380–750 nm), vs light only): 80%
cell content of B-EA6 accumulated (splenocytes): less than 20 ng/10^6 cells
prevention of arthritis symptoms (incidence of clinical symptoms, bimaleolar ankle width) [5]: effective in preventing the sequellae of adjuvant injection
vessel closure (arterioles and venules; irradiation started after 15 min): permanent closure
vessel closure (arterioles and venules; irradiation started at 5 min): transient vessel closure
CD80 (B7-1) expression, percent of cells treated with light only (CD80 (B7-1)): 102.3%
initial release from cells (L1210 cells [6]): much more rapid
CD54 (ICAM-1) expression, percent of cells treated with light only (CD54 (ICAM-1)): 106.9%
effect of PDT on surrounding normal skin [7]: did not affect the surrounding normal skin
effect of PDT on tumor [7]: effectively eliminated the tumor
CD86 (B7-2) expression, percent of cells treated with light only (CD86 (B7-2)): 92.2%
time to maximum uptake (L1210 cells [8]): ≤ 15 min
maximum concentration reached (intracellular content) (L1210 cells [8]; 10^7/mL L1210 cells): 145.9 ng/10^6 cells
